Results taken from patent US9822069B2, “Urea derivative or pharmacologically acceptable salt thereof” (KYORIN PHARMACEUTICAL CO. LTD., priority 2013, dated 2017).

Target: T1, human FPRL1 (Homo sapiens, UniProt P25090)
T1 construct: expressed in transfected cells; host or cells: HEK293 (JCRB9068, NIBIO), transient transfection with pCMV-script vectors using Lipofectamine 2000
T1 sequence (P25090 1-351): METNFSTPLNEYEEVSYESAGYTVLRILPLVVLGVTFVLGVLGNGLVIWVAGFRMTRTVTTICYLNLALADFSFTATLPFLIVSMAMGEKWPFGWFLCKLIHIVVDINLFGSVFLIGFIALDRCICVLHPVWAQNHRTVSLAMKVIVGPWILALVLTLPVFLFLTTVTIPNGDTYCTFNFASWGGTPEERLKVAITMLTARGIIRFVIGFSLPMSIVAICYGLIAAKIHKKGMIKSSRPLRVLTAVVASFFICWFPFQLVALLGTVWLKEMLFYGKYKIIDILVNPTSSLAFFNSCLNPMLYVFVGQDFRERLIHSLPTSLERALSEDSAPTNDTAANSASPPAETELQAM
Assay: Measurement test of agonist activity on human FPRL1 (test of calcium mobilization in cell, HEK293 with human FPRL1 and Gα15 expression vectors)
Type: cell-based
Conditions: calcium mobilization in HEK293 cells with human FPRL1 and Gα15 expression vectors
Summary of the method: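 HEK293 transiently co-transfected with human FPRL1 and Gα15, plated 24 h before assay, loaded with Fluo-4 NW dye plus probenecid. Compounds in eight 10-fold dilutions (DMSO stocks 10^−2 to 10^−9 M, then diluted 100-fold in assay buffer); calcium mobilization read on Flexstation for EC50.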

Row | EC50 [nM] | Structure (SMILES)
1 | 0.15 | COc1cc(F)c([C@@H]2CNC(=O)[C@H]2NC(=O)Nc2ccc(F)cc2)cc1F (single isomer, unassigned) [EXAMPLE 1-13, (−)-1-[(3S*,4R*)-4-(2,5-difluoro-4-methoxyphenyl)-2-oxopyrrolidin-3-yl]-3-(4-fluorophenyl)urea]
2 | 4.12 | COc1c(F)cc([C@@H]2CNC(=O)[C@H]2NC(=O)Nc2ccc(F)cc2)cc1F (single isomer, unassigned) [EXAMPLE 1-14, (−)-1-[(3S*,4R*)-4-(3,5-difluoro-4-methoxyphenyl)-2-oxopyrrolidin-3-yl]-3-(4-fluorophenyl)urea]
3 | 0.72 | COc1ccc([C@@H]2CNC(=O)[C@H]2NC(=O)Nc2ccc(F)cc2)s1 (single isomer, unassigned) [EXAMPLE 1-19, (−)-1-(4-fluorophenyl)-3-[(3S*,4R*)-4-(5-methoxythiophen-2-yl)-2-oxopyrrolidin-3-yl]urea]
4 | 1.75 | CSc1ccc([C@@H]2CNC(=O)[C@H]2NC(=O)Nc2ccc(F)cc2)cc1 (single isomer, unassigned) [EXAMPLE 1-20, (−)-1-(4-fluorophenyl)-3-[(3S*,4R*)-4-(4-methylthiophenyl)-2-oxopyrrolidin-3-yl]urea]
5 | 3.2 | COc1ccc(NC(=O)N[C@@H]2C(=O)NC[C@H]2c2c(F)cc(OC)cc2F)cc1 (single isomer, unassigned) [EXAMPLE 1-24, (−)-1-[(3S*,4R*)-4-(2,6-difluoro-4-methoxyphenyl)-2-oxopyrrolidin-3-yl]-3-(4-methoxyphenyl)urea]
6 | 0.15 | CCOC(=O)CN1C[C@@H](c2c(F)cc(OC)cc2F)[C@H](NC(=O)Nc2ccc(F)cc2)C1=O (single isomer, unassigned) [EXAMPLE 24-16, (−)-2-{(3S*,4R*)-4-(2,6-difluoro-4-methoxyphenyl)-3-[3-(4-fluorophenyl)ureido]-2-oxopyrrolidin-1-yl}acetic acid ethyl ester]
7 | 0.02 | COc1cc(F)c([C@@H]2CN(Cc3ncc(C)o3)C(=O)[C@H]2NC(=O)Nc2ccc(F)cc2)c(F)c1 (single isomer, unassigned) [EXAMPLE 24-17, (−)-1-{(3S*,4R*)-4-(2,6-difluoro-4-methoxyphenyl)-1-[(5-methyloxazol-2-yl)methyl]-2-oxopyrrolidin-3-yl}-3-(4-fluorophenyl)urea]
8 | 0.03 | COc1cc(F)c([C@@H]2CN(Cc3nnc(C)o3)C(=O)[C@H]2NC(=O)Nc2ccc(F)cc2)c(F)c1 (single isomer, unassigned) [EXAMPLE 24-18, (−)-1-{(3S*,4R*)-4-(2,6-difluoro-4-methoxyphenyl)-1-[(5-methyl-1,3,4-oxadiazol-2-yl)methyl]-2-oxopyrrolidin-3-yl}-3-(4-fluorophenyl)urea]
9 | 0.33 | O=C(Nc1ccc(F)cc1)N[C@@H]1C(=O)N(CCO)C[C@H]1c1cc2c(cc1F)OCC2 (single isomer, unassigned) [EXAMPLE 24-19, (−)-1-[(3S*,4R*)-4-(6-fluoro-2,3-dihydrobenzofuran-5-yl)-1-(2-hydroxyethyl)-2-oxopyrrolidin-3-yl]-3-(4-fluorophenyl)urea]
10 | 0.15 | CCOC(=O)CN1C[C@@H](c2cc3c(cc2F)OCC3)[C@H](NC(=O)Nc2ccc(F)cc2)C1=O (single isomer, unassigned) [EXAMPLE 24-20, (−)-2-{(3S*,4R*)-4-(6-fluoro-2,3-dihydrobenzofuran-5-yl)-3-[3-(4-fluorophenyl)ureido]-2-oxopyrrolidin-1-yl}acetic acid ethyl ester]
11 | 0.45 | CCOC(=O)C(C)(C)N1C[C@@H](c2cc3c(cc2F)OCC3)[C@H](NC(=O)Nc2ccc(F)cc2)C1=O (single isomer, unassigned) [EXAMPLE 24-21, (−)-2-{(3S*,4R*)-4-(6-fluoro-2,3-dihydrobenzofuran-5-yl)-3-[3-(4-fluorophenyl)ureido]-2-oxopyrrolidin-1-yl}-2-methylpropanoic acid ethyl ester]
12 | 1.32 | O=C(Nc1ccc(F)cc1)N[C@@H]1C(=O)N(CC2CC2)C[C@H]1c1cc2c(cc1F)OCC2 (single isomer, unassigned) [EXAMPLE 24-22, (−)-1-[(3S*,4R*)-1-(cyclopropylmethyl)-4-(6-fluoro-2,3-dihydrobenzofuran-5-yl)-2-oxopyrrolidin-3-yl]-3-(4-fluorophenyl)urea]
13 | 0.8 | N#CCN1C[C@@H](c2cc3c(cc2F)OCC3)[C@H](NC(=O)Nc2ccc(F)cc2)C1=O (single isomer, unassigned) [EXAMPLE 24-23, (−)-1-[(3S*,4R*)-1-(cyanomethyl)-4-(6-fluoro-2,3-dihydrobenzofuran-5-yl)-2-oxopyrrolidin-3-yl]-3-(4-fluorophenyl)urea]
14 | 0.46 | Cc1nnc(CN2C[C@@H](c3cc4c(cc3F)OCC4)[C@H](NC(=O)Nc3ccc(F)cc3)C2=O)o1 (single isomer, unassigned) [EXAMPLE 24-24, (−)-1-{(3S*,4R*)-4-(6-fluoro-2,3-dihydrobenzofuran-5-yl)-1-[(5-methyl-1,3,4-oxadiazol-2-yl)methyl]-2-oxopyrrolidin-3-yl}-3-(4-fluorophenyl)urea]
15 | 3.14 | COc1ccc([C@H]2CN(OC)C(=O)[C@@H]2NC(=O)Nc2ccc(F)cc2)cc1 (single isomer, unassigned) [EXAMPLE 27-1, (+)-1-(4-Fluorophenyl)-3-[(3R*,4S*)-1-methoxy-4-(4-methoxyphenyl)-2-oxopyrrolidin-3-yl]urea]
16 | 0.1 | COc1cc(F)c([C@@H]2CN(OC)C(=O)[C@H]2NC(=O)Nc2ccc(F)cc2)c(F)c1 (single isomer, unassigned) [EXAMPLE 27-2, (−)-1-[(3S*,4R*)-4-(2,6-Difluoro-4-methoxyphenyl)-1-methoxy-2-oxopyrrolidin-3-yl]-3-(4-fluorophenyl)urea]
17 | 1.64 | C#Cc1ccc(NC(=O)N[C@@H]2C(=O)NC[C@H]2c2c(F)cc(OC)cc2F)cc1 (single isomer, unassigned) [EXAMPLE 28-4, (−)-1-[(3S*,4R*)-4-(2,6-Difluoro-4-methoxyphenyl)-2-oxopyrrolidin-3-yl]-3-(4-ethynylphenyl) urea]
18 | 1.42 | CNc1cc(F)c([C@@H]2CNC(=O)[C@H]2NC(=O)Nc2ccc(F)cc2)c(F)c1 (single isomer, unassigned) [EXAMPLE 28-5, (−)-1-{(3S*,4R*)-4-[2,6-Difluoro-4-(methylamino)phenyl]-2-oxopyrrolidin-3-yl}-3-(4-fluorophenyl) urea]
19 | 1.94 | NC(=O)c1cc(F)c([C@@H]2CNC(=O)[C@H]2NC(=O)Nc2ccc(F)cc2)c(F)c1 (single isomer, unassigned) [EXAMPLE 31-1, (−)-3,5-Difluoro-4-{(3R*,4S*)-4-[3-(4-fluorophenyl)ureido]-5-oxopyrrolidin-3-yl}benzamide]
20 | 0.03 | CO/N=C1\NC[C@@H](c2ccc(OC)cc2F)[C@@H]1NC(=O)Nc1ccc(F)cc1 (single isomer, unassigned) [EXAMPLE 32-2, (−)-1-[(3S*,4R*,Z)-4-(2-fluoro-4-methoxyphenyl)-2-(methoxyimino)pyrrolidin-3-yl]-3-(4-fluorophenyl)urea]
21 | 0.17 | COc1ccc([C@@H]2CN/C(=N\OCCO)[C@H]2NC(=O)Nc2ccc(F)cc2)cc1 (single isomer, unassigned) [EXAMPLE 32-4, (−)-1-(4-fluorophenyl)-3-{(3S*,4R*,Z)-2-[(2-hydroxyethoxy)imino]-4-(4-methoxyphenyl)pyrrolidin-3-yl}urea]
22 | 0.44 | CO/N=C1\NC[C@@H](c2c(F)cc(OC)cc2F)[C@@H]1NC(=O)Nc1ccc(C)cc1 (single isomer, unassigned) [EXAMPLE 32-8, (−)-1-[(3S*,4R*,Z)-4-(2,6-difluoro-4-methoxyphenyl)-2-(methoxyimino)pyrrolidin-3-yl]-3-(p-tolyl)urea]
23 | 0.3 | CO/N=C1\NC[C@@H](c2c(F)cc(OC)cc2F)[C@@H]1NC(=O)Nc1ccc(C#N)cc1 (single isomer, unassigned) [EXAMPLE 32-9, (−)-1-(4-cyanphenyl)-3-[(3S*,4R*,Z)-4-(2,6-difluoro-4-methoxyphenyl)-2-(methoxyimino)pyrrolidin-3-yl]urea]
24 | 0.53 | CO/N=C1\NC[C@@H](c2c(F)cc(OC)cc2F)[C@@H]1NC(=O)Nc1ccc(Cl)nc1 (single isomer, unassigned) [EXAMPLE 32-10, (−)-1-(6-chloropyridin-3-yl)-3-[(3S*,4R*,Z)-4-(2,6-difluoro-4-methoxyphenyl)-2-(methoxyimino)pyrrolidin-3-yl]urea]
25 | 0.88 | CO/N=C1\NC[C@@H](c2c(F)cc(OC)cc2F)[C@@H]1NC(=O)Nc1cc2ccccc2s1 (single isomer, unassigned) [EXAMPLE 32-11, (−)-1-(benzo[b]thiophen-2-yl)-3-[(3S*,4R*,Z)-4-(2,6-difluoro-4-methoxyphenyl)-2-(methoxyimino)pyrrolidin-3-yl]urea]
26 | 0.25 | COc1cc(F)c([C@@H]2CN/C(=N\OCCO)[C@H]2NC(=O)Nc2ccc(C#N)cc2)c(F)c1 (single isomer, unassigned) [EXAMPLE 32-13, (−)-1-(4-cyanophenyl)-3-{(3S*,4R*,Z)-4-(2,6-difluoro-4-methoxyphenyl)-2-[(2-hydroxyethoxy)imino]pyrrolidin-3-yl}urea]
27 | 0.82 | COc1cc(F)c([C@@H]2CN/C(=N\OCCO)[C@H]2NC(=O)Nc2ccc(Cl)nc2)c(F)c1 (single isomer, unassigned) [EXAMPLE 32-14, (−)-1-(6-chloropyridin-3-yl)-3-{(3S*,4R*,Z)-4-(2,6-difluoro-4-methoxyphenyl)-2-[(2-hydroxyethoxy)imino]pyrrolidin-3-yl}urea]
